Article PMC8125089, “Synthesis, Structure, Carbohydrate Enzyme Inhibition, Antioxidant Activity, In Silico Drug-Receptor Interactions and Drug-Like Profiling of the 5-Styryl-2-Aminochalcone Hybrids” (Molecules, 2021)
Read-outs that look alike come from different tables or passages of the source.

Key:
[1] = NO free radical scavenging assay (sodium nitroprusside, Griess reaction); conditions: mean ± SD of three independent experiments
Source text: (§1) Reduced or lack of antioxidant activity of these compounds was attributed to the presence of intramolecular N-H···O hydrogen bond between amino and kenone group of the 2-aminochalcones and their sulfanamido derivatives which is envisaged to deactivate the unsaturated moiety. […] A combination of the styryl and the electrophilic α,β-unsaturated carbonyl arms on the same molecular framework encouraged us to evaluate the test compounds for antioxidant properties through the DPPH and NO radical scavenging assays. […] Compound 2a has potential to inhibit both α-glucosidase and α-amylase activities, and to reduce oxidative stress. […] The observed free radical scavenging activities of these molecular hybrids is presumably due to the presence of styryl arm on the intramolecularly hydrogen bonded 2-aminochalcone scaffold.
Nitric oxide was generated from sodium nitroprusside and measured by Griess’ reaction following the literature method. The experiment was done in triplicate with ascorbic acid (vitamin C) used as a positive control for the assay. In a 96 well plate, 5 μL of the test compounds (0.1, 0.5, 1.0, 5.0 and 10.0 μM in methanol) or the positive control were mixed with 5 μL of 10 mM sodium nitroprusside prepared in phosphate buffered saline (pH = 7.4) and allowed to incubate at room temperature for 2.5 h. Afterwards, 30 μL of the Griess reagent (a mixture of 0.2% N-(1-naphthyl)ethylenediamine dihydrochloride and 2% sulfanilamide in […]) was added to each well and the mixtures were and allowed to stand at room temperature for 30 min. Five absorbance readings were recorded at 546 nm using Varioskan flash microplate spectrophotometer reader.

[2] = molecular target: yeast α-glucosidase from Saccharomyces cervisiae (Saccharomyces cerevisiae, UniProt P53341); assay: biochemical
Procedure: All the tests and analyses were performed in triplicates following a modified published protocol described in our previous study. […] 2.5, 5, 10, 25 and 50 µM. α-Glucosidase solution (0.48 u/mL, 20 µL), phosphate buffer (100 mM, pH 6.8; 30 µL) and the test sample (20 µL) as well as the reference standard were added in the designated wells, and the reaction mixtures were incubated at 37 °C for 10 min. 2 mM p-nitrophenyl-α-D-glucopyranoside (20 µL) was added to each of the wells containing reaction mixture to initiate the reaction. The reaction was pre-incubated for 30 min at 37 °C. The reaction was stopped by the addition of 20 μL of a solution of sodium carbonate (200 mM) to each well. Five absorbance readings were recorded for each triplicate run at a wavelength of 400 nm using Varioskan flash microplate spectrophotometer (Thermo Scientific, Waltham, MA, USA). The average values obtained from the readings were used to determine the IC50 and standard deviation values. The values were calculated by the nonlinear regression analysis and expressed as the mean SD of three distinct experiments using Graph Pad Prism software.

[3] = DPPH radical scavenging assay; conditions: free radical scavenging; mean ± SD of three independent experiments
Source text: as §1
The antioxidant activities of the test compounds against ascorbic acid (Sigma Aldrich, Saint Louis, Missouri, USA) as a positive control were evaluated using 2,2-diphenyl-1-picrylhydrazyl (DPPH) radical scavenging assay developed by Zhu et al. as described in our previous study. Triplicate solutions (20 µL) of the test compounds and ascorbic acid in DMSO (final concentrations: 5, 10, 25, 50, and 100 µM) were added into each designated well of a 96-well plate. A solution of 0.20 mM DPPH (20 µL) in methanol was added to each well, and the 96-well plate was wrapped with aluminum foil and incubated in the dark for 45 min. Five absorbance readings were recorded at 512 nm using Varioskan flash microplate spectrophotometer reader. The average values obtained from the absorbance readings were used to determine the IC50 and standard deviation values.

α-amylase = assay: α-Amylase inhibition assay (α-Amylase Inhibitor Screening Kit); type: biochemical; conditions: mean ± SD of three independent experiments
Procedure: The α-amylase assay was performed in triplicate using a 96-well plate following the procedure by the manufacturer as outlined in the α-Amylase Inhibitor Screening Kit (Catalog No. K482; Bio Vision). […] For inhibitor control (10 µL of α-amylase inhibitor and 40 µL of assay buffer were added to 3 wells), enzyme control (50 µL of assay buffer was added to three wells) and 50 µL of the test compounds were added into the remaining wells. A solution of α-amylase enzyme (50 µL) prepared by adding 490 µL of assay buffer to 10 µL of α-amylase enzyme was added to each of the wells containing the reaction mixture to initiate the reaction. The plate was incubated for 10 min at room temperature in the dark. Five different absorbance readings were recorded for each triplicate run at a wavelength of 405 nm using Varioskan flash microplate spectrophotometer (Thermo Scientific, Waltham, MA, USA). The IC50 and SD values were calculated using graph pad prism.

α-glucosidase = α-glucosidase (Saccharomyces cerevisiae, UniProt P53341); assay: Enzyme kinetic studies (Lineweaver-Burk and Dixon plots); type: biochemical; conditions: for Ki / mode of inhibition: α-glucosidase; for Ki: PNPG substrate, read-out: Ki (Dixon plot); for mode of inhibition: Lineweaver-Burk and Dixon plots
Procedure: The Lineweaver-Burk plot of 1/V versus 1/[S] in the presence of different concentrations of compound 2a in the case of α-glucosidase gave a series of straight lines that intersect on the x-axis (Figure 3a). […] The compound probably binds to the active site and other allosteric sites on the enzyme.
Enzyme kinetics studies were performed on compounds 2a and 3e with increasing inhibitor and substrate concentrations. In the experimental procedure, inhibitors concentrations of 0.1, 0.5, 1, 2.5 µM, and final substrate concentration were 0.1, 0.5, 1 and 5 mM were used. 5 μL of the inhibitor and 2 μL of the enzyme (α-glucosidase) were added to each well of the 96-well plate. The reaction was incubated for 20 min at room temperature. 18 μL of the substrate, PNPG (4-nitrophenyl α-D-glucopyranoside) was then added and absorbance readings recorded after every 2 min at wavelength of 400 nm using a Varioskan flash microplate spectrophotometer reader. Lineweaver-Burk plot (the inverse of velocity (1/v) against the inverse of the substrate concentration (1/[S]) were used to determining the type of inhibition, while the inhibitor constant was obtained from the Dixon plot (the inverse of velocity (1/v) against concentration of inhibitor at each substrate concentration)

Vero cells = assay: MTT cytotoxicity assay on Vero cells; type: cell-based; conditions: monkey, 24 h treatment
Procedure: (§2) Metabolic diseases such as diabetes require a stable long-term therapy accompanied by well tolerated and low toxicity, and this encouraged us to evaluate the safety profile of 2a and 3e as potential antidiabetic agents at least in vitro. The compounds were evaluated for cytotoxicity against the normal monkey kidney cells (Vero cells) and the adenocarcinomic human epithelial (A549) cell line using the 3-(4,5-dimethylthiazol-2-yl)-2, 5-diphenyltetrazolium (MTT) assay.
The cytotoxicity activity of compounds 2a and 3e was evaluated against doxorubicin (positive control) using the 3-(4,5-dimethylthiazol-2-yl)-2,5-diphenyltetrazolium bromide (MTT) assay following a modification of a literature method by Mosmann. The Vero and A549 cells were maintained in Dulbecco′s modified Eagle′s medium (DMEM; Gibco) supplemented with 10% Fetal bovine serum (FBS) and 1% penicillin/streptomycin in culture flasks and incubated at 37 °C in 5% CO2. When the cells reached 85% confluency, they were detached using 2% trypsin. Cell count was performed using a handheld automated cell counter (Scapter 3.0™, Merck). The cells were seeded at 1 × 10^5 cells/well and incubated overnight to allow cell attachment. […] Five absorbance readings were recorded at 517 nm using Varioskan flash microplate spectrophotometer reader.

A549 cells = assay: MTT cytotoxicity assay on A549 cells; type: cell-based, human; conditions: 24 h treatment; for IC50 at 24 h: human, A549 cells
Procedure: as §2
The cytotoxicity activity of compounds 2a and 3e was evaluated against doxorubicin (positive control) using the 3-(4,5-dimethylthiazol-2-yl)-2,5-diphenyltetrazolium bromide (MTT) assay following a modification of a literature method by Mosmann. The Vero and A549 cells were maintained in Dulbecco′s modified Eagle′s medium (DMEM; Gibco) supplemented with 10% Fetal bovine serum (FBS) and 1% penicillin/streptomycin in culture flasks and incubated at 37 °C in 5% CO2. When the cells reached 85% confluency, they were detached using 2% trypsin. Cell count was performed using a handheld automated cell counter (Scapter 3.0™, Merck). The cells were seeded at 1 × 10^5 cells/well and incubated overnight to allow cell attachment. After 24 h, the cells were treated with different concentrations (0, 2.5, 5, 10, 25, 50, 100 µM) of the test compounds and the reference stand. The cells were incubated for 24 h followed by treatment with 20 µL of MTT solution (5 mg/mL). After 4 h incubation period, DMSO (100 µL) was added to each well to dissolve the formazan crystals. Five absorbance readings were recorded at 517 nm using Varioskan flash microplate spectrophotometer reader.

[4] = mean ± SD of three independent experiments, pH 6.8, 37 °C, read-out: IC50 (SD) α-Glucosidase

Sequence of α-glucosidase (P53341 whole entry): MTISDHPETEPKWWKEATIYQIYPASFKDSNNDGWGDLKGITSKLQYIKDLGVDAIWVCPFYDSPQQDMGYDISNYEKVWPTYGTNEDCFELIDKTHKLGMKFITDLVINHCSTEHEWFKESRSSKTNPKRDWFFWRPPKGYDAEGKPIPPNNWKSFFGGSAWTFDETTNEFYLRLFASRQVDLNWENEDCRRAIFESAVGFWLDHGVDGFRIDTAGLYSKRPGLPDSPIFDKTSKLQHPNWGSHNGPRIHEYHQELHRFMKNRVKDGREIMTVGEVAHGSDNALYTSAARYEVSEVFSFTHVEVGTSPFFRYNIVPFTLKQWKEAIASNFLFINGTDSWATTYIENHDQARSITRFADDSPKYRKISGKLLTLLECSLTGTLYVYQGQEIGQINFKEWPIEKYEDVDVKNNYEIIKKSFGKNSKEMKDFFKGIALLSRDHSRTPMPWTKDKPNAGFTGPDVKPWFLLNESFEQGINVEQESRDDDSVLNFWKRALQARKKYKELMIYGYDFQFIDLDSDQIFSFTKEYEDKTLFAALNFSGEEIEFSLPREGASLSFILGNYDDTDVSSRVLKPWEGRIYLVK
Sequence of yeast α-glucosidase from Saccharomyces cervisiae (P53341 whole entry): as above

SMILES	IC50 [1] [µM]	melting point [°C]	IC50 [2] [µM]	IC50 [3] [µM]	IC50 (α-amylase) [µM]	IC50 [2, 4] [µM]	velocity of the reaction (Vmax) (α-glucosidase; α-glucosidase in the presence of increasing inhibitor concentrations, Lineweaver-Burk plot) [µM/min]	Ki (α-glucosidase) [µM]	mode of inhibition (α-glucosidase)	IC50 at 24 h (Vero cells) [µM]	IC50 at 24 h (A549 cells) [µM]	IC50 (A549 cells) [µM]
Nc1ccc(/C=C/c2ccc(Cl)cc2)cc1C(=O)/C=C/c1cccc(F)c1 [Compound 3c, (E)-1-(2-Amino-5-((E)-4-Chlorostyryl)phenyl)-3-(3-fluorophenyl)prop-2-en-1-one]	10.6 ± 0.3	187 to 188	12.6 ± 0.31	15.3 ± 0.1	2.4 ± 0.1	–	–	–	–	–	–	–
COc1ccc(/C=C/c2ccc(N)c(C(=O)/C=C/c3cccc(F)c3)c2)cc1 [Compound 3d, (E)-1-(2-Amino-5-((E)-4-methoxystyryl)phenyl)-3-(3-fluorophenyl)prop-2-en-1-one]	7.9 ± 0.28	–	–	3.9 ± 0.21	7 ± 0.45	9.4 ± 0.5	–	–	–	–	–	–
Nc1ccc(/C=C/c2ccc(F)cc2)cc1C(=O)/C=C/c1cccc(F)c1 [Compound 3b, (E)-1-(2-Amino-5-((E)-4-fluorostyryl)phenyl)-3-(3-fluorophenyl)prop-2-en-1-one]	5.3 ± 0.34	175 to 177	–	6.6 ± 0.33	15.6 ± 0.6	6.1 ± 0.24	–	–	–	–	–	–
CC(=O)c1cc(/C=C/c2ccc(Cl)cc2)ccc1N [Compound 2c, (E)-1-(2-Amino-5-(4-chlorostyryl)phenyl)ethan-1-one]	11.6 ± 0.43	137 to 138	15.9 ± 0.34	10.4 ± 0.15	5.8 ± 0.51	–	–	–	–	–	–	–
O=C1O[C@H]([C@@H](O)CO)C(O)=C1O [Ascorbic acid, reference compound]	6.14 ± 0.21	–	–	4.2 ± 0.27	–	–	–	–	–	–	–	–
CC(=O)c1cc(/C=C/c2ccc(F)cc2)ccc1N [Compound 2b, (E)-1-(2-Amino-5-(4-fluorostyryl)phenyl)ethan-1-one]	7.2 ± 0.4	149 to 150	12.7 ± 0.16	15.8 ± 0.21	19.3 ± 0.42	–	–	–	–	–	–	–
COc1ccc(/C=C/c2ccc(N)c(C(C)=O)c2)cc1 [Compound 2d, (E)-1-(2-Amino-5-(4-methoxystyryl)phenyl)ethan-1-one]	25.9 ± 0.61	139 to 140	30.7 ± 0.42	9.3 ± 0.23	9 ± 0.31	–	–	–	–	–	–	–
Nc1ccc(/C=C/c2ccccc2)cc1C(=O)/C=C/c1ccc(F)cc1 [Compound 3e, (E)-1-(2-Amino-5-((E)-styryl)phenyl)-3-(4-fluorophenyl)prop-2-en-1-one]	20.5 ± 0.46	161 to 162	–	4.2 ± 0.43	1.6 ± 0.52	5.1 ± 0.61	0.01 ± 0.002	1.48 ± 0.05	mixed mode of inhibition	220 ± 0.57	204 ± 0.55	–
Nc1ccc(/C=C/c2ccccc2)cc1C(=O)/C=C/c1cccc(F)c1 [Compound 3a, (E)-1-(2-Amino-5-((E)-styryl)phenyl)-3-(3-fluorophenyl)prop-2-en-1-one]	18.9 ± 0.54	129 to 130	17.8 ± 0.32	21.6 ± 0.32	10.7 ± 0.21	–	–	–	–	–	–	–
Nc1ccc(/C=C/c2ccc(F)cc2)cc1C(=O)/C=C/c1ccc(F)cc1 [Compound 3f, (E)-1-(2-Amino-5-((E)-4-fluorostyryl)phenyl)-3-(4-fluorophenyl)prop-2-en-1-one]	8.8 ± 0.33	–	–	18.5 ± 0.37	9.5 ± 0.41	6.9 ± 0.37	–	–	–	–	–	–
CC(=O)c1cc(/C=C/c2ccccc2)ccc1N [Compound 2a, (E)-1-(2-Amino-5-styrylphenyl)ethan-1-one]	8.3 ± 0.22	119 to 120	–	7.1 ± 0.32	2.3 ± 0.2	5.4 ± 0.1	–	0.3 ± 0.04	non-competitive mode of inhibition	164.6 ± 0.59	65.7 ± 0.14	–
COc1cccc2c1C(=O)c1c(O)c3c(c(O)c1C2=O)C[C@@](O)(C(=O)CO)C[C@@H]3O[C@H]1C[C@H](N)[C@H](O)[C@H](C)O1 [Doxorubicin, reference compound]	–	–	–	–	–	–	–	–	–	–	–	1.14 ± 0.23
Nc1ccc(/C=C/c2ccc(Cl)cc2)cc1C(=O)/C=C/c1ccc(F)cc1 [Compound 3g, (E)-1-(2-Amino-5-((E)-4-chlorostyryl)phenyl)-3-(4-fluorophenyl)prop-2-en-1-one]	15.1 ± 0.19	197 to 198	19.2 ± 0.47	5.2 ± 0.53	1.7 ± 0.25	–	–	–	–	–	–	–
COc1ccc(/C=C/c2ccc(N)c(C(=O)/C=C/c3ccc(F)cc3)c2)cc1 [Compound 3h, (E)-1-(2-Amino-5-((E)-4-methoxystyryl)phenyl)-3-(4-fluorophenyl)prop-2-en-1-one]	20.2 ± 0.23	153 to 154	10.5 ± 0.18	25.8 ± 0.43	7.6 ± 0.2	–	–	–	–	–	–	–
